Here are results for 5 compounds from US20260345640A1 (priority 2025, published 2026).

Test [1] relates to E. coli DH5αZ1 expressing TetX7. The test is described as follows: Minimum inhibitory concentration, TetX7-expressing strain. Type of test: cell-based. To be noted: Escherichia coli, 20 h. As for the experimental part: (§1) The panels were stored at −80 °C before use. Single colonies of E. coli DH5αZ1 containing TetX7, Tet50, or empty vector in pZE24 expression system were grown in MH-II broth with KAN50 and growth for overnight at 37 °C. On the day of the experiment, MIC panels were thawed at room temperature. […] The panels were incubated at 37 °C for 20 h, then scored by visual inspection. […] Each test was performed in triplicate, with no-antibiotic and no-cell control wells.
(§2) Minimum inhibitory concentrations (MICs) were determined using the broth microdilution method according to CLSI guidelines. Visual inspection of bacterial growth and measurement of the OD600 were used to determine the lowest concentration at which bacterial growth was inhibited.

In test [2] the test system is E. coli DH5αZ1 expressing Tet50. The test is described as follows: Minimum inhibitory concentration, Tet50-expressing strain. Type of test: cell-based. As to conditions: 20 h; for MIC: Escherichia coli; for MIC, Tet50, +TC: presence of 8 μg/mL TC, 37 °C. As for the experimental part:
as §1, §2

For test [3], the target named is T1, Tet50 (Unknown prokaryotic organism, UniProt A0A059WYP6).
T1 construct: made in house; host or cells: E. coli BL21-Star (DE3)
T1 sequence (A0A059WYP6 whole entry): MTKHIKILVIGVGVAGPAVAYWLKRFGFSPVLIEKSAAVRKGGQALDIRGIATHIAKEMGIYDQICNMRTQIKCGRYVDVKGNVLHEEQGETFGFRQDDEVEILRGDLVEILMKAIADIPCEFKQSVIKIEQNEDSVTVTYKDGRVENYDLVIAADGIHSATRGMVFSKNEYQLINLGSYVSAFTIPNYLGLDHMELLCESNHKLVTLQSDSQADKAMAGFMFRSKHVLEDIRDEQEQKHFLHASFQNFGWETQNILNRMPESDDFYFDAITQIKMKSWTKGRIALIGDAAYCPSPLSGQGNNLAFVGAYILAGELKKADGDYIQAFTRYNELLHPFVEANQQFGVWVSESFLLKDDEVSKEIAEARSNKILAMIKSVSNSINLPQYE
The test is described as follows: In vitro inhibition of TC oxidation by Tet50 (A400), variable preincubation, dark or blue light. Type of test: biochemical. As to conditions: role: inhibitor, 100 μM TC, 500 μM NADPH. The method, then:
PHBH activity was determined similarly using para-hydroxybenzoic acids as substrate and monitoring for NADPH consumption via A340. […] Reaction samples were prepared in a Costar 96-well flat bottom clear, polystyrene plate and incubated under dark or a 700 lm blue LED bulb held at a distance of 20 cm for various durations. Incubation times were 0, 30, 60, 120, and 240 min under dark or 0, 1, 2, 4, and 8 min under blue light. […] Initial enzyme velocities were determined by linear regression over the linear range of the reaction (typically between 0 and 1 min). […] The velocities were plotted against the logarithm of inhibitor concentration, and apparent IC50 plots were analyzed using GraphPad prism 10 software. […] All apparent IC50 values were plotted against the duration of incubation time and fitted to an exponential decay function. All data points were shown as means and error bars represented standard deviation at least two independent experiments.
TetX7 and TetX6 as model Type 1 enzymes and Tet50 as a model Type 2 enzyme were used.
A hallmark of covalent enzyme inhibition was time dependence given that longer exposure of the enzyme to the inhibitor allowed for more inactivating turnovers. […] The apparent IC50 values were determined for each preincubation time point by monitoring the TDase velocity at A400 under various inhibitor concentrations. The apparent IC50 values were plotted against the preincubation times to determine if the TDase inhibition was time-dependent (FIG. 6).

Where [4] appears, read: dark, 30 min preincubation of inhibitor with enzyme prior to initiating assay, read-out: Apparent IC50 values, Tet50.
[5] abbreviates: read-out: Apparent IC50 value over 7 min blue light, blue light, 7 min.

The structures appear in SMILES notation. ≈ marks a conversion by molar mass, not a printed value. Counter-ions that a name gives are not always drawn. Like-named read-outs stand apart in the source and are kept apart here.

In the case of `Cc1c2c(c(O)c3c(O)c(CNC4(C)CC4)ccc13)C(=O)C1(O)C(=O)C(C(N)=O)=C(O)C(N(C)C)C1C2` [Compound 103, (4S,4aS,12aS)-4-(Dimethylamino)-3,10,11,12a-tetrahy-droxy-6-methyl-9-(((1-methylcyclopropyl)amino)methyl)-1,12-dioxo-1,4,4a,5,12,12a-hexahydrotetracene-2-carboxamide Hydrochloride], the MIC – broadly, the least concentration at which growth counts as inhibited – in test [1] (read-out: MIC, TetX7, −TC) was found to be 64 µg/mL; in test [2] (read-out: MIC, Tet50, −TC), 64 µg/mL. For the same compound, the “MIC, Tet50, +TC” value in test [2] worked out at 16 µg/mL.

As to `C#CCNCc1ccc2c(C)c3c(c(O)c2c1O)C(=O)[C@]1(O)C(=O)C(C(N)=O)=C(O)[C@@H](N(C)C)[C@@H]1C3.Cl` [Compound 104, (4S,4aS,12aS)-4-(Dimethylamino)-3,10,11,12a-tetrahydroxy-6-methyl-1,12-dioxo-9-((prop-2-yn-1-ylamino)-methyl)-1,4,4a,5,12,12a-hexahydrotetracene-2-carboxamide Hydrochloride], the 50% inhibitory concentration (IC50) (usually the concentration that inhibits the measured activity by half) in test [3] (setting [4]) came to 600 ± 40 µM. Further, in test [2], the “MIC, Tet50, +TC” value was found to be 8 µg/mL.

For the compound `C#CCN(C)Cc1ccc2c(C)c3c(c(O)c2c1O)C(=O)[C@]1(O)C(=O)C(C(N)=O)=C(O)[C@@H](N(C)C)[C@@H]1C3` [Compound 105], the values for the IC50 in test [3] (setting [5]) and in test [3] (setting [4]) were 107 ± 6 µM and 470 ± 60 µM, respectively. Also, the MIC in test [2] (read-out: MIC, Tet50, −TC) is 32 µg/mL (≈ 63 µM). Also, the “MIC, Tet50, +TC” value in test [2] was 16 µg/mL.

For the compound `Cc1c2c(c(O)c3c(O)cccc13)C(=O)[C@]1(O)C(=O)C(C(N)=O)=C(O)[C@@H](N(C)C)[C@@H]1C2` [Compound 106, Anhydrotetracycline, reference compound], the IC50 in test [3] (setting [5]) amounted to 70 ± 10 µM; in test [3] (blue light, start of course, read-out: Apparent IC50 value at start of blue light course) it was 500 ± 60 µM; in test [3] (dark, 240 min preincubation, read-out: Apparent IC50 value over 240 min preincubation), 340 ± 40 µM.

`CN(C)[C@@H]1C(O)=C(C(N)=O)C(=O)[C@@]2(O)C(O)=C3C(=O)c4c(O)cccc4[C@@](C)(O)[C@H]3C[C@@H]12` [TC, tetracycline, reference compound]: the MIC in test [1] (read-out: MIC of TC against TetX7::pZE24) and in test [2] (read-out: MIC of TC against Tet50::pZE24) was 16 µg/mL in each case.
